Reference: patent US5190741A, “Agents for diagnosing and treating melanomas, aromatic halogenated derivatives usable as such agents and their preparation” (Institut National de la Sante et de la Recherche Medicale …, priority 1989, dated 1993)
Where two headings read alike, the source gives them in different places.

Assays:
[1] = Tissue distribution in Swiss nu/nu SSCUP mice bearing Beu; format: in vivo, human; conditions: mouse, iv, 3 umol/animal
Protocol: The study of the tissue distribution of the ^125 I labelled compounds was performed in mice bearing grafted melanomas (cf. autoradiograms above). […] The animals are sacrificed at different time intervals of 1 to 24 hours after the injection. The blood is collected and the principal organs are excised. Aliquots are weighed and the radioactivity of the samples is measured in a […] 1191 counter (analytic tracer). The counting yield for iodine 125 is 60%. The results are expressed: as a percentage of the injected dose bound per g of tissue (% ID/g); in the form of the ratios [formula] This ratio reflects more precisely the selectivity of a molecule for an organ (tables 2, 4, 6, 8, 10 and 12).

[2] = tested on: SW 948 (adenocarcinoma of the colon); assay: Scintillation imaging (specificity), nu/nu SSCUP nude mice; format: in vivo; conditions: after injection of A
Source text: The mice bearing grafted tumors are anesthetized by the i.p. injection of sodium pentobarbital 1/5 and immobilized under a scintillation camera (Gammatome II, CGR) equipped with a pinhole 3-360 collimator, sensitivity 3.2 10^-4.

[3] = intestine, read-out: intestine % ID/g
[4] = kidney, read-out: kidney % ID/g
[5] = muscle, read-out: muscle % ID/g
[6] = pancreas, read-out: pancreas % ID/g
[7] = plasma, read-out: plasma % ID/g
[8] = spleen, read-out: spleen % ID/g
[9] = stomach, read-out: stomach % ID/g
[10] = submaxillary glands, read-out: submaxillary glands % ID/g

CCN(CC)CCNC(=O)c1ccc(I)cc1 [Derivative A, N-(2-diethylaminoethyl) 4-iodo benzamide]
tissue uptake at 1 h ([1]; blood, read-out: blood % ID/g): 0.87 %ID/g
tissue uptake at 2 h ([1]; blood, read-out: blood % ID/g): 0.53 %ID/g
tissue uptake at 4 h ([1]; blood, read-out: blood % ID/g): 0.32 %ID/g
tissue uptake at 6 h ([1]; blood, read-out: blood % ID/g): 0.13 %ID/g
tissue uptake at 24 h ([1]; blood, read-out: blood % ID/g): 0.01 %ID/g
tissue uptake at 8 h ([1]; blood, 8 h, read-out: blood % ID/g): 0.05 %ID/g
tissue uptake at 12 h ([1]; blood, read-out: blood % ID/g): 0.02 %ID/g
tissue uptake at 1 h ([1]; brain, read-out: brain % ID/g): 1.66 %ID/g
tissue uptake at 2 h ([1]; brain, read-out: brain % ID/g): 1.13 %ID/g
tissue uptake at 4 h ([1]; brain, read-out: brain % ID/g): 0.78 %ID/g
tissue uptake at 6 h ([1]; brain, read-out: brain % ID/g): 0.28 %ID/g
tissue uptake at 24 h ([1]; brain, read-out: brain % ID/g): 0.006 %ID/g
tissue uptake at 8 h ([1]; brain, 8 h, read-out: brain % ID/g): 0.13 %ID/g
tissue uptake at 12 h ([1]; brain, read-out: brain % ID/g): 0.01 %ID/g
tissue uptake at 1 h ([1]; eye, read-out: eye % ID/g): 0.64 %ID/g
tissue uptake at 2 h ([1]; eye, read-out: eye % ID/g): 0.56 %ID/g
tissue uptake at 4 h ([1]; eye, read-out: eye % ID/g): 0.34 %ID/g
tissue uptake at 6 h ([1]; eye, read-out: eye % ID/g): 0.13 %ID/g
tissue uptake at 24 h ([1]; eye, read-out: eye % ID/g): 0.03 %ID/g
tissue uptake at 8 h ([1]; eye, 8 h, read-out: eye % ID/g): 0.07 %ID/g
tissue uptake at 12 h ([1]; eye, read-out: eye % ID/g): 0.03 %ID/g
tissue uptake at 1 h [1, 3]: 3.76 %ID/g
tissue uptake at 2 h [1, 3]: 2.35 %ID/g
tissue uptake at 4 h [1, 3]: 1.56 %ID/g
tissue uptake at 6 h [1, 3]: 0.52 %ID/g
tissue uptake at 8 h ([1]; intestine, 8 h, read-out: intestine % ID/g): 0.15 %ID/g
tissue uptake at 12 h [1, 3]: 0.08 %ID/g
tissue uptake at 24 h [1, 3]: 0.03 %ID/g
tissue uptake at 1 h [1, 4]: 7.63 %ID/g
tissue uptake at 2 h [1, 4]: 5.9 %ID/g
tissue uptake at 4 h [1, 4]: 4.28 %ID/g
tissue uptake at 6 h [1, 4]: 0.99 %ID/g
tissue uptake at 24 h [1, 4]: 0.06 %ID/g
tissue uptake at 8 h ([1]; kidney, 8 h, read-out: kidney % ID/g): 0.28 %ID/g
tissue uptake at 12 h [1, 4]: 0.1 %ID/g
tissue uptake at 1 h ([1]; liver, read-out: liver % ID/g): 5.27 %ID/g
tissue uptake at 2 h ([1]; liver, read-out: liver % ID/g): 3.5 %ID/g
tissue uptake at 4 h ([1]; liver, read-out: liver % ID/g): 2.28 %ID/g
tissue uptake at 6 h ([1]; liver, read-out: liver % ID/g): 0.94 %ID/g
tissue uptake at 24 h ([1]; liver, read-out: liver % ID/g): 0.13 %ID/g
tissue uptake at 8 h ([1]; liver, 8 h, read-out: liver % ID/g): 0.52 %ID/g
tissue uptake at 12 h ([1]; liver, read-out: liver % ID/g): 0.28 %ID/g
tissue uptake at 1 h ([1]; lungs, read-out: lungs % ID/g): 7.77 %ID/g
tissue uptake at 2 h ([1]; lungs, read-out: lungs % ID/g): 4.71 %ID/g
tissue uptake at 4 h ([1]; lungs, read-out: lungs % ID/g): 3.6 %ID/g
tissue uptake at 6 h ([1]; lungs, read-out: lungs % ID/g): 1.25 %ID/g
tissue uptake at 8 h ([1]; lungs, 8 h, read-out: lungs % ID/g): 0.35 %ID/g
tissue uptake at 12 h ([1]; lungs, read-out: lungs % ID/g): 0.08 %ID/g
tissue uptake at 24 h ([1]; lungs, read-out: lungs % ID/g): 0.05 %ID/g
tissue uptake at 1 h [1, 5]: 1.3 %ID/g
tissue uptake at 2 h [1, 5]: 0.93 %ID/g
tissue uptake at 4 h [1, 5]: 0.51 %ID/g
tissue uptake at 6 h [1, 5]: 0.33 %ID/g
tissue uptake at 24 h [1, 5]: 0.01 %ID/g
tissue uptake at 8 h ([1]; muscle, 8 h, read-out: muscle % ID/g): 0.08 %ID/g
tissue uptake at 12 h [1, 5]: 0.01 %ID/g
tissue uptake at 1 h [1, 6]: 3.99 %ID/g
tissue uptake at 2 h [1, 6]: 2.28 %ID/g
tissue uptake at 4 h [1, 6]: 1.39 %ID/g
tissue uptake at 6 h [1, 6]: 0.36 %ID/g
tissue uptake at 8 h ([1]; pancreas, 8 h, read-out: pancreas % ID/g): 0.12 %ID/g
tissue uptake at 12 h [1, 6]: 0.06 %ID/g
tissue uptake at 24 h [1, 6]: 0.05 %ID/g
tissue uptake at 1 h [1, 7]: 0.46 %ID/g
tissue uptake at 2 h [1, 7]: 0.35 %ID/g
tissue uptake at 4 h [1, 7]: 0.2 %ID/g
tissue uptake at 6 h [1, 7]: 0.12 %ID/g
tissue uptake at 24 h [1, 7]: 0.01 %ID/g
tissue uptake at 8 h ([1]; plasma, 8 h, read-out: plasma % ID/g): 0.04 %ID/g
tissue uptake at 12 h [1, 7]: 0.02 %ID/g
tissue uptake at 1 h [1, 8]: 4.11 %ID/g
tissue uptake at 2 h [1, 8]: 2.12 %ID/g
tissue uptake at 4 h [1, 8]: 1.07 %ID/g
tissue uptake at 6 h [1, 8]: 0.28 %ID/g
tissue uptake at 8 h ([1]; spleen, 8 h, read-out: spleen % ID/g): 0.11 %ID/g
tissue uptake at 12 h [1, 8]: 0.04 %ID/g
tissue uptake at 24 h [1, 8]: 0.02 %ID/g
tissue uptake at 1 h [1, 9]: 2.49 %ID/g
tissue uptake at 2 h [1, 9]: 1.51 %ID/g
tissue uptake at 4 h [1, 9]: 1.16 %ID/g
tissue uptake at 6 h [1, 9]: 0.49 %ID/g
tissue uptake at 8 h ([1]; stomach, 8 h, read-out: stomach % ID/g): 0.22 %ID/g
tissue uptake at 12 h [1, 9]: 0.07 %ID/g
tissue uptake at 24 h [1, 9]: 0.04 %ID/g
tissue uptake at 1 h [1, 10]: 5.11 %ID/g
tissue uptake at 2 h [1, 10]: 2.9 %ID/g
tissue uptake at 4 h [1, 10]: 1.71 %ID/g
tissue uptake at 6 h [1, 10]: 0.95 %ID/g
tissue uptake at 8 h ([1]; submaxillary glands, 8 h, read-out: submaxillary glands % ID/g): 0.24 %ID/g
tissue uptake at 12 h [1, 10]: 0.04 %ID/g
tissue uptake at 24 h [1, 10]: 0.03 %ID/g
tissue uptake at 1 h ([1]; tumor, read-out: tumor % ID/g): 3.51 %ID/g
tissue uptake at 2 h ([1]; tumor, read-out: tumor % ID/g): 3.17 %ID/g
tissue uptake at 4 h ([1]; tumor, read-out: tumor % ID/g): 3.25 %ID/g
tissue uptake at 6 h ([1]; tumor, read-out: tumor % ID/g): 1.96 %ID/g
tissue uptake at 24 h ([1]; tumor, read-out: tumor % ID/g): 0.07 %ID/g
tissue uptake at 8 h ([1]; tumor, up to 8 hours, Beu, read-out: intratumoral concentration): > 1 %ID/g
tissue uptake at 8 h ([1]; tumor, 8 h, read-out: tumor % ID/g): 1.07 %ID/g
tissue uptake at 12 h ([1]; tumor, read-out: tumor % ID/g): 0.36 %ID/g
tumor image [2]: not obtained any image
